Data from patent US11643391B2, “Prodrugs and conjugates of dimethyltryptamine” (priority 2021, dated 2023).

Experiments:
[1] = Stability in PBS pH 6.5; settings: for half-life: PBS, pH 6.5, T½
[2] = Stability in SGF with pepsin; assay type: physicochemical
[3] = Stability in SGF without pepsin; assay type: physicochemical
[4] = physchem; settings: buffer, pH 6.5
[5] = Stability in Mouse Plasma; assay type: in vitro ADME
[6] = background statement, cited from earlier work
[7] = Table 8, if calculated T½ < 0, T½ reported as 9999 min

SMILES: CC(OC(=O)n1cc(CCN(C)C)c2ccccc21)OC(=O)C(C)(C)C (racemic) [VLS-03-15]
- Peak Area of MRM: 205.0/159.8 (analyte VLS-03-15 Parent) ([1]; 0 min): 6.56E+05
- Peak Area of MRM: 205.0/159.8 (analyte VLS-03-15 Parent) ([1]; 30 min): 6.55E+05
- Peak Area of MRM: 205.0/159.8 (analyte VLS-03-15 Parent) ([1]; 60 min): 6.28E+05
- Peak Area of MRM: 205.0/159.8 (analyte VLS-03-15 Parent) ([1]; 120 min): 5.86E+05
- Peak Area of MRM: 205.0/159.8 (analyte VLS-03-15 Parent) ([1]; 240 min): 5.51E+05
- Remaining Percentage ([1]; Table 8, 0 min): 100.00%
- Remaining Percentage ([1]; Table 8, 30 min): 96.93%
- Remaining Percentage ([1]; Table 8, 60 min): 89.82%
- Remaining Percentage ([1]; Table 8, 120 min): 89.44%
- Remaining Percentage ([1]; Table 8, 240 min): 82.54%
- Peak Area of MRM: 205.0/159.8 (analyte VLS-03-15 Parent) ([1]; VLS-03-15 standard): 6.74E+05
- Peak Area of MRM: 205.0/159.8 (analyte VLS-03-15 Parent) ([2]; 0 min): 6.75E+05
- Peak Area of MRM: 205.0/159.8 (analyte VLS-03-15 Parent) ([2]; 30 min): 7.21E+05
- Peak Area of MRM: 205.0/159.8 (analyte VLS-03-15 Parent) ([2]; 60 min): 7.26E+05
- Peak Area of MRM: 205.0/159.8 (analyte VLS-03-15 Parent) ([2]; 120 min): 7.14E+05
- Peak Area of MRM: 205.0/159.8 (analyte VLS-03-15 Parent) ([2]; 240 min): 7.15E+05
- Remaining Percentage ([2]; Table 8, 0 min): 100.00%
- Remaining Percentage ([2]; Table 8, 30 min): 97.29%
- Remaining Percentage ([2]; Table 8, 60 min): 107.53%
- Remaining Percentage ([2]; Table 8, 120 min): 103.18%
- Remaining Percentage ([2]; Table 8, 240 min): 102.22%
- T½ [2, 7]: 166.65 h
- Peak Area of MRM: 205.0/159.8 (analyte VLS-03-15 Parent) ([2]; VLS-03-15 standard): 6.26E+05
- Peak Area of MRM: 205.0/159.8 (analyte VLS-03-15 Parent) ([3]; 0 min): 7.05E+05
- Peak Area of MRM: 205.0/159.8 (analyte VLS-03-15 Parent) ([3]; 30 min): 6.94E+05
- Peak Area of MRM: 205.0/159.8 (analyte VLS-03-15 Parent) ([3]; 60 min): 6.55E+05
- Peak Area of MRM: 205.0/159.8 (analyte VLS-03-15 Parent) ([3]; 120 min): 7.09E+05
- Peak Area of MRM: 205.0/159.8 (analyte VLS-03-15 Parent) ([3]; 240 min): 6.96E+05
- Remaining Percentage ([3]; Table 8, 0 min): 100.00%
- Remaining Percentage ([3]; Table 8, 30 min): 101.12%
- Remaining Percentage ([3]; Table 8, 60 min): 103.35%
- Remaining Percentage ([3]; Table 8, 120 min): 105.28%
- Remaining Percentage ([3]; Table 8, 240 min): 97.98%
- half-life [3, 7]: 7840 min
- Peak Area of MRM: 205.0/159.8 (analyte VLS-03-15 Parent) ([3]; VLS-03-15 standard): 6.10E+05
- half-life [4]: 922 min
- Remaining Percentage ([5]; Table 9, 0 min): 100.00%
- Remaining Percentage ([5]; Table 9, 15 min): 0.00%
- Remaining Percentage ([5]; Table 9, 30 min): 0.00%
- Remaining Percentage ([5]; Table 9, 60 min): 0.00%
- Remaining Percentage ([5]; Table 9, 120 min): 0.00%

SMILES: O=C(O)CCCc1ccc(N(CCCl)CCCl)cc1 [Chlorambucil, reference compound]
- half-life [1, 7]: 47.2 min
- half-life ([1]; Table 10): 43.2 min
- Remaining Percentage ([1]; Table 8, 0 min): 100.00%
- Remaining Percentage ([1]; Table 8, 30 min): 64.51%
- Remaining Percentage ([1]; Table 8, 60 min): 42.26%
- Remaining Percentage ([1]; Table 8, 120 min): 16.83%
- Remaining Percentage ([1]; Table 8, 240 min): 2.99%
- Remaining Percentage ([1]; Table 10, 0 min): 100.00%
- Remaining Percentage ([1]; Table 10, 30 min): 61.12%
- Remaining Percentage ([1]; Table 10, 60 min): 43.17%
- Remaining Percentage ([1]; Table 10, 120 min): 15.12%
- Remaining Percentage ([1]; Table 10, 240 min): 2.15%

SMILES: CN(C)CCc1c[nH]c2ccccc12 [DMT, N,N-dimethyltryptamine]
- estimated half-life ([6]; at higher doses): less than fifteen minutes
- oral bioavailability ([6]; converted by monoamine oxidases): poor oral bioavailability

SMILES: CC[C@H]1OC(=O)[C@H](C)[C@@H](O[C@H]2C[C@@](C)(OC)[C@@H](O)[C@H](C)O2)[C@H](C)[C@@H](O[C@@H]2O[C@H](C)C[C@H](N(C)C)[C@H]2O)[C@](C)(O)C[C@@H](C)C(=O)[C@H](C)[C@@H](O)[C@]1(C)O [Erythromycin, reference compound]
- Remaining Percentage ([2]; Table 8, 0 min): 100.00%
- Remaining Percentage ([2]; Table 8, 30 min): 56.55%
- Remaining Percentage ([2]; Table 8, 60 min): 37.33%
- Remaining Percentage ([2]; Table 8, 120 min): 14.06%
- Remaining Percentage ([2]; Table 8, 240 min): 2.14%
- half-life [2, 7]: 43.6 min
- Remaining Percentage ([2]; Table 10, 0 min): 100.00%
- Remaining Percentage ([2]; Table 10, 30 min): 56.55%
- Remaining Percentage ([2]; Table 10, 60 min): 34.88%
- Remaining Percentage ([2]; Table 10, 120 min): 11.22%
- Remaining Percentage ([2]; Table 10, 240 min): 1.60%
- half-life ([2]; Table 10, read-out: T½): 40.3 min
- Remaining Percentage ([3]; Table 8, 0 min): 100.00%
- Remaining Percentage ([3]; Table 8, 30 min): 52.67%
- Remaining Percentage ([3]; Table 8, 60 min): 28.46%
- Remaining Percentage ([3]; Table 8, 120 min): 8.27%
- Remaining Percentage ([3]; Table 8, 240 min): 1.47%
- half-life [3, 7]: 39.5 min
- Remaining Percentage ([3]; Table 10, 0 min): 100.00%
- Remaining Percentage ([3]; Table 10, 30 min): 59.45%
- Remaining Percentage ([3]; Table 10, 60 min): 33.60%
- Remaining Percentage ([3]; Table 10, 120 min): 10.27%
- Remaining Percentage ([3]; Table 10, 240 min): 1.20%
- half-life ([3]; Table 10, read-out: T½): 37.4 min
